Laboratory results taken from patent publication US20180104269A1, “COMPOSITION FOR SUPPRESSING MUSCULAR FATTY CHANGE” (SUNTORY HOLDINGS LIMITED, priority 2015, published 2018).

What was measured:
[1] = tested on: myosatellite cells derived from a rat; test: Oil red-O staining of oil droplets / count of adipocyte-like cells after adipogenic differentiation culture; format: cell-based
Excerpt: (§1) The gastrocnemial muscle, the soleus, the anterior tibial muscle, the extensor digitorum longus muscle, and the quadriceps femoris muscle were extracted from the Fischer 344 rat of 10 to 14 weeks old under anesthesia, and minced. The above tissues were subjected to enzymolysis with Protease (Sigma-Aldrich) and subjected to centrifugal treatment to obtain a precipitate. The obtained precipitate was suspended in Dulbecco's Modified Eagle Medium (DMEM) containing 10% horse fetus serum, and seeded on an 8-well slide glass (BD Thermo Science) so that the myosatellite cells are 5×10^4 to 7×10^4 cells/mL.
(§2) Myosatellite cells isolated by F-10 containing 20% cow serum (GIBCO) was cultured for 72 h. Then, the cells were cultured for 72 h. in an adipogenic induction medium (Lonza) containing 0.1% DMSO (Control), 5 μM quercetin, 10 μM quercetin or 50 μM quercetin. Then, the cells were cultured for 72 h. in an adipogenic maintenance medium (Lonza) containing the control, 5 μM quercetin, 10 μM quercetin or 50 μM quercetin.
After the cultured cells were washed in PBS, they were fixed by 10% formalin (Wako Pure Chemical Industries, Ltd.) at room temperature for 10 min. Then, they were reacted with 10% oil red-O solution (Sigma Aldrich) that was dissolved in 2-propanol at room temperature for 30 min.

[2] = biological target: T1, PPARγ (Homo sapiens, UniProt P37231); settings: read-out: IC50 as PPARγ inhibitor; cited from earlier work
T1 sequence (P37231 1-505): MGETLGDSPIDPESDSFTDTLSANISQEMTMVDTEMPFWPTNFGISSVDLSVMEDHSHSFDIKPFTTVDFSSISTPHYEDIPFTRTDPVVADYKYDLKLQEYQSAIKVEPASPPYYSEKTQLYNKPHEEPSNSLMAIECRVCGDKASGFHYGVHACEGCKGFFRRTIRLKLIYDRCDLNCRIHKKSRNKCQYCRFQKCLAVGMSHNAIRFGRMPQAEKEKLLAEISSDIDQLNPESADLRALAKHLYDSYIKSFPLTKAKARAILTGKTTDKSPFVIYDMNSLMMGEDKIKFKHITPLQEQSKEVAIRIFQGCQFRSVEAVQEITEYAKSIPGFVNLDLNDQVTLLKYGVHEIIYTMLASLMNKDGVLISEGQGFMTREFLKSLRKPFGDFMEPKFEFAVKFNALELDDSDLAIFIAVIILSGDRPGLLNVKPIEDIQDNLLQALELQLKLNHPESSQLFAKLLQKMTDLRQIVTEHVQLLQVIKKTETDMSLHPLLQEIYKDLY

[3] = tested on: myosatellite cells derived from a rat; test: Quantification of amount of triglyceride in cells after adipogenic differentiation culture; format: cell-based; settings: 5, 10, 50 μM vs 0 μM
Excerpt: as §1, §2
After the cells that were subjected to adipogenic differentiation culture were washed with PBS, a PBS that contains 5% Triton-X 100 was added as a cell lysate, and the cell solution was collected, heated and cooled. After the cells were centrifuged, triglyceride and protein in the supernatant were quantified. The LabAssay™ Triglyceride (Wako Pure Chemical Industries, Ltd.) was used for the quantification of triglyceride. The Pierce BCA Protein Assay Kit (Thermo Scientific) was used for the quantification of protein. […] The results were tested using the Dunnett's test, and the value of 5% or lower was determined to be the significant amount (*: p<0.05 vs 0 μM. †: p<0.05 vs 5 μM).

[4] = cited from earlier work
[5] = 5 μM, 72 h adipogenic induction medium then 72 h adipogenic maintenance medium, vs control (0.1% DMSO)
[6] = 10 μM, 72 h induction then 72 h maintenance medium
[7] = 50 μM, 72 h induction then 72 h maintenance medium

SMILES	number of adipocyte-like cells stained by oil red-O ([1]; 1 μM, 72 h induction then 72 h maintenance medium)	number of adipocyte-like cells stained by oil red-O [1, 5]	number of adipocyte-like cells stained by oil red-O [1, 6]	IC50 [2] [nM]	oil droplets stained by oil red-O [1, 5]	number of oil droplets stained by oil red-O [1, 6]	number of adipocyte-like cells stained by oil red-O [1, 7]	number of oil droplets stained by oil red-O [1, 7]	amount of protein in the cells in the well [3]	amount of triglyceride corrected by the amount of protein [3]	amount of triglyceride in cells after adipogenic differentiation ([3]; Dunnett's test)	solubility in water [4]
O=C(Nc1ccccc1)c1cc([N+](=O)[O-])ccc1Cl [GW9662, reference compound]	did not decrease	did not decrease	did not decrease	3.3	–	–	–	–	–	–	–	–
O=c1c(O)c(-c2ccc(O)c(O)c2)oc2cc(O)cc(O)c12 [quercetin]	–	no significant decrease	decreased	–	the same level of oil droplets as the control	decreased in a concentration dependent manner	decreased	decreased in a concentration dependent manner	did not change	decreased in a quercetin concentration dependent manner	decreased in a quercetin-concentration dependent manner	insoluble to water
